Test results reported in US9113629B2, “4-amino-6-(4-substituted-phenyl)-picolinates and 6-amino-2-(4-substituted-phenyl)-pyrimidine-4-carboxylates and their use as herbicides” (DOW AGROSCIENCES LLC, priority 2013, dated 2015).
Where two headings read alike, the source gives them in different places.

Experiments:
[1] = test system: Key Grass and Sedge Weeds as well as Grass Crops; experiment: Post-emergent Test II herbicidal activity (Table 6); assay type: in vivo; conditions: for Visual Growth Reduction (%) 14 Days After Application, SORVU: SORVU: sorghum (Sorghum vulgare); for pest or weed control at 70 g/ha / pest or weed control at 140 g/ha: post-emergence, 336 h
Procedure, shortened: (§1)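 Foliar application at 187 L/ha to greenhouse-grown seedlings (first or second true leaf); subirrigation thereafter. Visual 0–100% injury at 14 d relative to untreated plants.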

[2] = test system: Key Broadleaf Weed and Crop Species; experiment: Post-emergent Test II herbicidal activity (Table 5); assay type: in vivo; conditions: post-emergent; for pest or weed control at 70 g/ha / pest or weed control at 140 g/ha: post-emergence, 336 h, 14 days after application
Procedure, shortened: as §1

Which results are given for `COC(=O)c1nc(-c2ccc(C(F)(F)F)c(F)c2)c(Cl)c(N)c1Cl` [Compound 58]?
Visual Growth Reduction (%) 14 Days After Application, CYPES ([1]; CYPES: yellow nutsedge (Cyperus esculentus), application rate 70 g ai/ha): A (95-100); Visual Growth Reduction (%) 14 Days After Application, CYPES ([1]; CYPES: yellow nutsedge (Cyperus esculentus), application rate 140 g ai/ha): A (95-100); Visual Growth Reduction (%) 14 Days After Application, DIGSA ([1]; DIGSA: crabgrass (Digitaria sanguinalis), application rate 70 g ai/ha): D (60-74); Visual Growth Reduction (%) 14 Days After Application, DIGSA ([1]; DIGSA: crabgrass (Digitaria sanguinalis), application rate 140 g ai/ha): C (75-84); Visual Growth Reduction (%) 14 Days After Application, ECHCG ([1]; ECHCG: barnyardgrass (Echinochloa crus-galli), application rate 70 g ai/ha): G (0-29); Visual Growth Reduction (%) 14 Days After Application, ECHCG ([1]; ECHCG: barnyardgrass (Echinochloa crus-galli), application rate 140 g ai/ha): C (75-84); Visual Growth Reduction (%) 14 Days After Application, ORYSA ([1]; ORYSA: rice (Oryza sativa), application rate 70 g ai/ha): G (0-29); Visual Growth Reduction (%) 14 Days After Application, ORYSA ([1]; ORYSA: rice (Oryza sativa), application rate 140 g ai/ha): G (0-29); Visual Growth Reduction (%) 14 Days After Application, SORVU ([1]; application rate 70 g ai/ha): E (45-59); Visual Growth Reduction (%) 14 Days After Application, SORVU ([1]; application rate 140 g ai/ha): E (45-59); Visual Growth Reduction (%) 14 Days After Application, TRZSS ([1]; TRZSS (wheat), application rate 70 g ai/ha): E (45-59); Visual Growth Reduction (%) 14 Days After Application, TRZSS ([1]; TRZSS (wheat), application rate 140 g ai/ha): D (60-74); Visual Growth Reduction (%) 14 Days After Application, ZEAMX ([1]; ZEAMX: maize, corn (Zea mays), application rate 70 g ai/ha): D (60-74); Visual Growth Reduction (%) 14 Days After Application, ZEAMX ([1]; ZEAMX: maize, corn (Zea mays), application rate 140 g ai/ha): D (60-74); Visual Growth Reduction (%) 14 Days After Application, ABUTH ([2]; ABUTH: velvetleaf (Abutilon theophrasti), 70 g ai/ha): B (85-94); Visual Growth Reduction (%) 14 Days After Application, ABUTH ([2]; ABUTH: velvetleaf (Abutilon theophrasti), 140 g ai/ha): A (95-100); Visual Growth Reduction (%) 14 Days After Application, AMARE ([2]; AMARE: redroot pigweed (Amaranthus retroflexus), 70 g ai/ha): B (85-94); Visual Growth Reduction (%) 14 Days After Application, AMARE ([2]; AMARE: redroot pigweed (Amaranthus retroflexus), 140 g ai/ha): A (95-100); Visual Growth Reduction (%) 14 Days After Application, BRSNN ([2]; BRSNN: oilseed-rape, canola (Brassica napus), 70 g ai/ha): D (60-74); Visual Growth Reduction (%) 14 Days After Application, BRSNN ([2]; BRSNN: oilseed-rape, canola (Brassica napus), 140 g ai/ha): C (75-84); Visual Growth Reduction (%) 14 Days After Application, CHEAL ([2]; CHEAL: lambsquarters (Chenopodium album), 70 g ai/ha): A (95-100); Visual Growth Reduction (%) 14 Days After Application, CHEAL ([2]; CHEAL: lambsquarters (Chenopodium album), 140 g ai/ha): A (95-100); Visual Growth Reduction (%) 14 Days After Application, EPHHL ([2]; EPHHL: wild poinsettia (Euphorbia heterophylla), 70 g ai/ha): G (0-29); Visual Growth Reduction (%) 14 Days After Application, EPHHL ([2]; EPHHL: wild poinsettia (Euphorbia heterophylla), 140 g ai/ha): G (0-29); Visual Growth Reduction (%) 14 Days After Application, HELAN ([2]; HELAN: sunflower (Helianthus annuus), 70 g ai/ha): A (95-100); Visual Growth Reduction (%) 14 Days After Application, HELAN ([2]; HELAN: sunflower (Helianthus annuus), 140 g ai/ha): A (95-100); Visual Growth Reduction (%) 14 Days After Application, VIOTR ([2]; VIOTR: wild pansy (Viola tricolor), 70 g ai/ha): G (0-29); Visual Growth Reduction (%) 14 Days After Application, VIOTR ([2]; VIOTR: wild pansy (Viola tricolor), 140 g ai/ha): G (0-29)

Which pest or weed control at 70 g/ha ([1]; Triticum aestivum, TRZSS (wheat), application rate 70 g ai/ha, read-out: Visual Growth Reduction (%) 14 Days After Application, TRZSS) does the source give for `C#Cc1ccc(-c2nc(C(=O)OC)c(C=C)c(N)c2F)cc1` [Compound 60, methyl 4-amino-6-(4-ethynylphenyl)-5-fluoro-3-vinylpicolinate] here?
Its pest or weed control at 70 g/ha is 0 to 29%.

What about the pest or weed control at 140 g/ha ([1]; Triticum aestivum, TRZSS (wheat), application rate 140 g ai/ha, read-out: Visual Growth Reduction (%) 14 Days After Application, TRZSS) of the same compound?
The pest or weed control at 140 g/ha was 0 to 29%.

And the pest or weed control at 70 g/ha ([1]; CYPES: yellow nutsedge (Cyperus esculentus), application rate 70 g ai/ha, read-out: Visual Growth Reduction (%) 14 Days After Application, CYPES)?
Its pest or weed control at 70 g/ha is 0 to 29%.

And the pest or weed control at 140 g/ha ([1]; CYPES: yellow nutsedge (Cyperus esculentus), application rate 140 g ai/ha, read-out: Visual Growth Reduction (%) 14 Days After Application, CYPES)?
The pest or weed control at 140 g/ha was 0 to 29%.

And the pest or weed control at 70 g/ha ([1]; DIGSA: crabgrass (Digitaria sanguinalis), application rate 70 g ai/ha, read-out: Visual Growth Reduction (%) 14 Days After Application, DIGSA)?
Its pest or weed control at 70 g/ha is 0 to 29%.

And the pest or weed control at 140 g/ha ([1]; DIGSA: crabgrass (Digitaria sanguinalis), application rate 140 g ai/ha, read-out: Visual Growth Reduction (%) 14 Days After Application, DIGSA)?
Its pest or weed control at 140 g/ha is 0 to 29%.

And the pest or weed control at 70 g/ha ([1]; ECHCG: barnyardgrass (Echinochloa crus-galli), application rate 70 g ai/ha, read-out: Visual Growth Reduction (%) 14 Days After Application, ECHCG)?
The pest or weed control at 70 g/ha was 0 to 29%.

And the pest or weed control at 140 g/ha ([1]; ECHCG: barnyardgrass (Echinochloa crus-galli), application rate 140 g ai/ha, read-out: Visual Growth Reduction (%) 14 Days After Application, ECHCG)?
Its pest or weed control at 140 g/ha is 0 to 29%.

What about the pest or weed control at 70 g/ha ([1]; ORYSA: rice (Oryza sativa), application rate 70 g ai/ha, read-out: Visual Growth Reduction (%) 14 Days After Application, ORYSA) of the same compound?
Its pest or weed control at 70 g/ha is 0 to 29%.

What about the pest or weed control at 140 g/ha ([1]; ORYSA: rice (Oryza sativa), application rate 140 g ai/ha, read-out: Visual Growth Reduction (%) 14 Days After Application, ORYSA) of the same compound?
Its pest or weed control at 140 g/ha is 0 to 29%.

And the pest or weed control at 70 g/ha ([1]; SETFA: giant foxtail (Setaria faberi), application rate 70 g ai/ha, read-out: Visual Growth Reduction (%) 14 Days After Application, SETFA)?
The pest or weed control at 70 g/ha was 0 to 29%.

What about the pest or weed control at 140 g/ha ([1]; SETFA: giant foxtail (Setaria faberi), application rate 140 g ai/ha, read-out: Visual Growth Reduction (%) 14 Days After Application, SETFA) of the same compound?
The pest or weed control at 140 g/ha was 0 to 29%.

And the pest or weed control at 70 g/ha ([1]; SORVU: grain sorghum (Sorghum vulgare), application rate 70 g ai/ha, read-out: Visual Growth Reduction (%) 14 Days After Application, SORVU)?
The pest or weed control at 70 g/ha was 0 to 29%.

What about the pest or weed control at 140 g/ha ([1]; SORVU: grain sorghum (Sorghum vulgare), application rate 140 g ai/ha, read-out: Visual Growth Reduction (%) 14 Days After Application, SORVU) of the same compound?
The pest or weed control at 140 g/ha was 0 to 29%.

And the pest or weed control at 70 g/ha ([1]; ZEAMX: maize, corn (Zea mays), application rate 70 g ai/ha, read-out: Visual Growth Reduction (%) 14 Days After Application, ZEAMX)?
Its pest or weed control at 70 g/ha is 0 to 29%.

What about the pest or weed control at 140 g/ha ([1]; ZEAMX: maize, corn (Zea mays), application rate 140 g ai/ha, read-out: Visual Growth Reduction (%) 14 Days After Application, ZEAMX) of the same compound?
The pest or weed control at 140 g/ha was 0 to 29%.

What about the pest or weed control at 70 g/ha ([2]; ABUTH: velvetleaf (Abutilon theophrasti), 70 g ai/ha, read-out: Visual Growth Reduction (%) 14 Days After Application ABUTH) of the same compound?
The pest or weed control at 70 g/ha was 0 to 29%.

What about the pest or weed control at 140 g/ha ([2]; ABUTH: velvetleaf (Abutilon theophrasti), 140 g ai/ha, read-out: Visual Growth Reduction (%) 14 Days After Application ABUTH) of the same compound?
The pest or weed control at 140 g/ha was 0 to 29%.

And the pest or weed control at 70 g/ha ([2]; AMARE: redroot pigweed (Amaranthus retroflexus), 70 g ai/ha, read-out: Visual Growth Reduction (%) 14 Days After Application AMARE)?
Its pest or weed control at 70 g/ha is 0 to 29%.

And the pest or weed control at 140 g/ha ([2]; AMARE: redroot pigweed (Amaranthus retroflexus), 140 g ai/ha, read-out: Visual Growth Reduction (%) 14 Days After Application AMARE)?
The pest or weed control at 140 g/ha was 0 to 29%.

And the pest or weed control at 70 g/ha ([2]; BRSNN: oilseed-rape, canola (Brassica napus), 70 g ai/ha, read-out: Visual Growth Reduction (%) 14 Days After Application BRSNN)?
The pest or weed control at 70 g/ha was 0 to 29%.

What about the pest or weed control at 140 g/ha ([2]; BRSNN: oilseed-rape, canola (Brassica napus), 140 g ai/ha, read-out: Visual Growth Reduction (%) 14 Days After Application BRSNN) of the same compound?
Its pest or weed control at 140 g/ha is 0 to 29%.

What about the pest or weed control at 70 g/ha ([2]; CHEAL: lambsquarters (Chenopodium album), 70 g ai/ha, read-out: Visual Growth Reduction (%) 14 Days After Application CHEAL) of the same compound?
The pest or weed control at 70 g/ha was 0 to 29%.

And the pest or weed control at 140 g/ha ([2]; CHEAL: lambsquarters (Chenopodium album), 140 g ai/ha, read-out: Visual Growth Reduction (%) 14 Days After Application CHEAL)?
Its pest or weed control at 140 g/ha is 0 to 29%.

What about the pest or weed control at 70 g/ha ([2]; EPHHL: wild poinsettia (Euphorbia heterophylla), 70 g ai/ha, read-out: Visual Growth Reduction (%) 14 Days After Application EPHHL) of the same compound?
The pest or weed control at 70 g/ha was 0 to 29%.

And the pest or weed control at 140 g/ha ([2]; EPHHL: wild poinsettia (Euphorbia heterophylla), 140 g ai/ha, read-out: Visual Growth Reduction (%) 14 Days After Application EPHHL)?
Its pest or weed control at 140 g/ha is 0 to 29%.

And the pest or weed control at 70 g/ha ([2]; HELAN: sunflower (Helianthus annuus), 70 g ai/ha, read-out: Visual Growth Reduction (%) 14 Days After Application HELAN)?
Its pest or weed control at 70 g/ha is 45 to 59%.

What about the pest or weed control at 140 g/ha ([2]; HELAN: sunflower (Helianthus annuus), 140 g ai/ha, read-out: Visual Growth Reduction (%) 14 Days After Application HELAN) of the same compound?
The pest or weed control at 140 g/ha was 75 to 84%.

What about the pest or weed control at 70 g/ha ([2]; VIOTR: wild pansy (Viola tricolor), 70 g ai/ha, read-out: Visual Growth Reduction (%) 14 Days After Application VIOTR) of the same compound?
Its pest or weed control at 70 g/ha is 0 to 29%.

What about the pest or weed control at 140 g/ha ([2]; VIOTR: wild pansy (Viola tricolor), 140 g ai/ha, read-out: Visual Growth Reduction (%) 14 Days After Application VIOTR) of the same compound?
Its pest or weed control at 140 g/ha is 0 to 29%.
